According to PMC11017388 (ACS Medicinal Chemistry Letters, 2024):
pIC50: −log10 of the molar value.

target: T1, PKa (Homo sapiens, UniProt P03952); assay: not given; conditions: competitive, reversible inhibitor; cited from earlier work
T1 sequence (P03952 391-638 limits assumed): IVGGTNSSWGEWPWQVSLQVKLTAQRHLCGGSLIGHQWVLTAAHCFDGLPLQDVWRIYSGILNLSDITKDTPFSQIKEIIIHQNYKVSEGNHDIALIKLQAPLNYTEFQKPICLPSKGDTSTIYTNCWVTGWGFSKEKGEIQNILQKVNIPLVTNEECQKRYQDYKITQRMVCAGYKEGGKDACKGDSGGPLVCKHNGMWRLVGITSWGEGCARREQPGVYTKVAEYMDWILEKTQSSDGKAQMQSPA
T1 sequence (P03952 20-390 partner limits assumed): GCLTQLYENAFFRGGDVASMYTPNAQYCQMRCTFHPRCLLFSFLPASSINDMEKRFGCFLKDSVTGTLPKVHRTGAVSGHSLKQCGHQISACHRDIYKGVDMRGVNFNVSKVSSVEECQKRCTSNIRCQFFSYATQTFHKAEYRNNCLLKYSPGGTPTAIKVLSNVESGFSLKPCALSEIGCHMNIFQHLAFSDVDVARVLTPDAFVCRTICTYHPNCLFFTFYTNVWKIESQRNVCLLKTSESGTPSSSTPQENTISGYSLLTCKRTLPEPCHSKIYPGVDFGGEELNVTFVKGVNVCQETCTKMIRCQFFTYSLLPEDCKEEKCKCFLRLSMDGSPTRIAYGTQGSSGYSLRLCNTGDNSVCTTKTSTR

Compound	pIC50
Cc1cc(N)nc(C)c1CNC(=O)c1cnn(Cc2ccc(Cn3cccn3)cc2)c1 [Compound 11]	8.70

system: not listed separately; assay: NMR stability study of pinacol boronate in PBS buffer; assay type: physicochemical; conditions: pH7.4 phosphate buffer (D2O)
Method: Molecular docking experiments were conducted to visualize the potential binding mode of 20. However, it soon became apparent that the pinacol boronate group was too large to fit into the Ser195 subpocket. Having previously experienced hydrolysis of the pinacol boronate during purification, model substrate 17b was used to study the stability of the pinacol boronate in PBS buffer by NMR (see Supporting Information Figure S1).

Stability of the pinacol boronate in PBS buffer by NMR	Compound
rapidly hydrolyzed	Cc1ccc(C(NC(=O)c2cnn(Cc3ccccc3)c2)B2OC(C)(C)C(C)(C)O2)c(F)c1 (stereo not drawn) [Compound 17b]

system: not listed separately; assay: Stability in DMSO and aqueous media (LCMS observation); assay type: physicochemical; conditions: protodeborylation observed by LCMS

Stability in DMSO / aqueous media	Compound
instability in DMSO and aqueous media	O=C(NC(B(O)O)c1cccc(Cl)c1)c1cnn(Cc2ccccc2)c1 (stereo not drawn) [Compound 18]
unstable over time in DMSO	CC1(C)OB(C(N)c2cccc(Cl)c2)OC1(C)C.Cl (stereo not drawn) [Compound 15a]

target: plasma kallikrein (PKa) (Homo sapiens, UniProt P03952); assay: Isolated enzyme potency against PKa, IC50 after enzyme/inhibitor preincubation time course; conditions: not given
Sequence (P03952 391-638 limits assumed): as the sequence (P03952 391-638 limits assumed) above
Sequence (P03952 20-390 partner limits assumed): as the sequence (P03952 20-390 partner limits assumed) above

pIC50	Compound
9.48	Cc1ccc(C(NC(=O)c2cnn(Cc3ccc(Cn4cccn4)cc3)c2)B2OC(C)(C)C(C)(C)O2)c(F)c1 (stereo not drawn) [Compound 20]

same assay, conditions: preincubation time course

Inhibition of PKa (in words)	Compound
no activity	O=C(NC(B(O)O)c1cccc(Cl)c1)c1cnn(Cc2ccccc2)c1 (stereo not drawn) [Compound 18]
no PKa inhibition	O=C(NCc1cccc(Cl)c1)c1cnn(Cc2ccc(Cn3cccn3)cc2)c1 [Compound 24]
no activity	CC1(C)OB(C(N)c2cccc(Cl)c2)OC1(C)C.Cl (stereo not drawn) [Compound 15a]

same assay, conditions: read-out: PKa IC50; 1 min preincubation

pIC50	Compound
7.18	Cc1ccc(C(NC(=O)c2cnn(Cc3ccc(Cn4cccn4)cc3)c2)B2OC(C)(C)C(C)(C)O2)c(F)c1 (stereo not drawn) [Compound 20]
7.43	Cc1ccc(CNC(=O)c2cnn(Cc3ccc(Cn4ccccc4=O)cc3)c2)c(F)c1 [Compound 27]
< 4.40	O=C(/C=C/c1cccc(Cl)c1)c1cnn(Cc2ccc(Cn3cccn3)cc2)c1 [Compound 29]
6.57	O=C(NCc1cccc(Cl)c1)c1cnn(Cc2ccc(Cn3ccccc3=O)cc2)c1 [Compound 25]
< 4.40	O=C(NCc1cccc(Cl)c1)c1cnn(Cc2ccc(Cn3cccn3)cc2)c1 [Compound 24]

same assay, conditions: read-out: PKa IC50; 5 min preincubation

pIC50	Compound
< 3.40	O=C(NC(B(O)O)c1cccc(Cl)c1)c1cnn(Cc2ccccc2)c1 (stereo not drawn) [Compound 18]
< 3.40	CC1(C)OB(C(N)c2cccc(Cl)c2)OC1(C)C.Cl (stereo not drawn) [Compound 15a]

same assay, conditions: read-out: PKa IC50; 10 min preincubation

pIC50	Compound
8.16	Cc1ccc(C(NC(=O)c2cnn(Cc3ccc(Cn4cccn4)cc3)c2)B2OC(C)(C)C(C)(C)O2)c(F)c1 (stereo not drawn) [Compound 20]
7.43	Cc1ccc(CNC(=O)c2cnn(Cc3ccc(Cn4ccccc4=O)cc3)c2)c(F)c1 [Compound 27]
< 4.40	O=C(/C=C/c1cccc(Cl)c1)c1cnn(Cc2ccc(Cn3cccn3)cc2)c1 [Compound 29]
6.55	O=C(NCc1cccc(Cl)c1)c1cnn(Cc2ccc(Cn3ccccc3=O)cc2)c1 [Compound 25]
< 4.40	O=C(NCc1cccc(Cl)c1)c1cnn(Cc2ccc(Cn3cccn3)cc2)c1 [Compound 24]

same assay, conditions: read-out: PKa IC50; 60 min preincubation

Compound	pIC50
O=C(NC(B(O)O)c1cccc(Cl)c1)c1cnn(Cc2ccccc2)c1 (stereo not drawn) [Compound 18]	< 3.40
O=C(/C=C/c1cccc(Cl)c1)c1cnn(Cc2ccc(Cn3cccn3)cc2)c1 [Compound 29]	< 4.40
CC1(C)OB(C(N)c2cccc(Cl)c2)OC1(C)C.Cl (stereo not drawn) [Compound 15a]	< 3.40

Other lines, results leading:

pIC50	Compound
9.52	Cc1ccc(C(NC(=O)c2cnn(Cc3ccc(Cn4cccn4)cc3)c2)B2OC(C)(C)C(C)(C)O2)c(F)c1 (stereo not drawn) [Compound 20]
7.46	Cc1ccc(CNC(=O)c2cnn(Cc3ccc(Cn4ccccc4=O)cc3)c2)c(F)c1 [Compound 27]
6.56	O=C(NCc1cccc(Cl)c1)c1cnn(Cc2ccc(Cn3ccccc3=O)cc2)c1 [Compound 25]
< 4.40	O=C(NCc1cccc(Cl)c1)c1cnn(Cc2ccc(Cn3cccn3)cc2)c1 [Compound 24]

same assay, conditions: read-out: PKa IC50; 2 h, extended time course

pIC50	Compound
9.54	Cc1ccc(C(NC(=O)c2cnn(Cc3ccc(Cn4cccn4)cc3)c2)B2OC(C)(C)C(C)(C)O2)c(F)c1 (stereo not drawn) [Compound 20]

same assay, conditions: read-out: PKa IC50; 24 h

pIC50	Compound
10.15	Cc1ccc(C(NC(=O)c2cnn(Cc3ccc(Cn4cccn4)cc3)c2)B2OC(C)(C)C(C)(C)O2)c(F)c1 (stereo not drawn) [Compound 20]

target: FXIa (Homo sapiens, UniProt P03951); assay: Time-dependent potency determination against FXIa; assay type: biochemical; conditions: 1 min preincubation
Sequence (P03951 388-625 limits assumed): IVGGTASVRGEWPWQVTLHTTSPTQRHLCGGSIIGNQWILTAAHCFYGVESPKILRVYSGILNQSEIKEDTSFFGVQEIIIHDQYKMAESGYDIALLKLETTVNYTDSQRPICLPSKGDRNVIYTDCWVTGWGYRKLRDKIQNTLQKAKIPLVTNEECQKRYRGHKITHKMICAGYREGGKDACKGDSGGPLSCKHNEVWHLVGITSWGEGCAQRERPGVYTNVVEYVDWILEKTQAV
Sequence (P03951 19-387 partner limits assumed): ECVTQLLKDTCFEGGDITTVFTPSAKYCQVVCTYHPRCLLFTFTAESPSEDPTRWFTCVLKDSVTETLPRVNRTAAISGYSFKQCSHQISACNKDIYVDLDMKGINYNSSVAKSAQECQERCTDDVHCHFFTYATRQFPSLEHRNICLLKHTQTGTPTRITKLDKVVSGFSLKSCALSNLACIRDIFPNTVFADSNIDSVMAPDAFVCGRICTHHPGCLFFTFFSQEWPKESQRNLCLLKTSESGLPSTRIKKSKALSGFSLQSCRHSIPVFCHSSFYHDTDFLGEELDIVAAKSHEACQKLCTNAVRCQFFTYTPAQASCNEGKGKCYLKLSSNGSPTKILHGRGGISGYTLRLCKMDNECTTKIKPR
From the text: S5: Pharmacology: Material and Methods :

pIC50	Compound
4.73	Cc1ccc(C(NC(=O)c2cnn(Cc3ccc(Cn4cccn4)cc3)c2)B2OC(C)(C)C(C)(C)O2)c(F)c1 (stereo not drawn) [Compound 20]
< 4.40	O=C(NCc1cccc(Cl)c1)c1cnn(Cc2ccc(Cn3cccn3)cc2)c1 [Compound 24]

same assay, conditions: 10 min preincubation

pIC50	Compound
4.78	Cc1ccc(C(NC(=O)c2cnn(Cc3ccc(Cn4cccn4)cc3)c2)B2OC(C)(C)C(C)(C)O2)c(F)c1 (stereo not drawn) [Compound 20]
< 4.40	O=C(NCc1cccc(Cl)c1)c1cnn(Cc2ccc(Cn3cccn3)cc2)c1 [Compound 24]

same assay, conditions: 60 min preincubation

pIC50	Compound
4.91	Cc1ccc(C(NC(=O)c2cnn(Cc3ccc(Cn4cccn4)cc3)c2)B2OC(C)(C)C(C)(C)O2)c(F)c1 (stereo not drawn) [Compound 20]
< 4.40	O=C(NCc1cccc(Cl)c1)c1cnn(Cc2ccc(Cn3cccn3)cc2)c1 [Compound 24]

target: Thrombin (Homo sapiens, UniProt P00734); assay: Time-dependent potency determination against thrombin; conditions: not given

pIC50	Compound
< 4.40	Cc1ccc(C(NC(=O)c2cnn(Cc3ccc(Cn4cccn4)cc3)c2)B2OC(C)(C)C(C)(C)O2)c(F)c1 (stereo not drawn) [Compound 20]
< 4.40	O=C(NCc1cccc(Cl)c1)c1cnn(Cc2ccc(Cn3cccn3)cc2)c1 [Compound 24]

same assay, conditions: read-out: Thrombin IC50; 10 min preincubation

pIC50	Compound
< 4.40	Cc1ccc(C(NC(=O)c2cnn(Cc3ccc(Cn4cccn4)cc3)c2)B2OC(C)(C)C(C)(C)O2)c(F)c1 (stereo not drawn) [Compound 20]
< 4.40	O=C(NCc1cccc(Cl)c1)c1cnn(Cc2ccc(Cn3cccn3)cc2)c1 [Compound 24]

same assay, conditions: read-out: Thrombin IC50; 60 min preincubation

pIC50	Compound
< 4.40	Cc1ccc(C(NC(=O)c2cnn(Cc3ccc(Cn4cccn4)cc3)c2)B2OC(C)(C)C(C)(C)O2)c(F)c1 (stereo not drawn) [Compound 20]
< 4.40	O=C(NCc1cccc(Cl)c1)c1cnn(Cc2ccc(Cn3cccn3)cc2)c1 [Compound 24]

target: Plasmin (Homo sapiens, UniProt P00747); assay: Time-dependent potency determination against plasmin; conditions: Plasmin IC50, 1 min preincubation
Sequence (P00747 581-810 limits assumed, species assumed): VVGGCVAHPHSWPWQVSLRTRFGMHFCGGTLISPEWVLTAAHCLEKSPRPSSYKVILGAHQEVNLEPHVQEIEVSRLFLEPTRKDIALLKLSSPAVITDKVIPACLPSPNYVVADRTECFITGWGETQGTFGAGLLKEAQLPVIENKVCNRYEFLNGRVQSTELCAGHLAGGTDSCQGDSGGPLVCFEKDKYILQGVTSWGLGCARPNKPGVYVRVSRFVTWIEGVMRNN
Sequence (P00747 97-580 partner limits assumed, species assumed): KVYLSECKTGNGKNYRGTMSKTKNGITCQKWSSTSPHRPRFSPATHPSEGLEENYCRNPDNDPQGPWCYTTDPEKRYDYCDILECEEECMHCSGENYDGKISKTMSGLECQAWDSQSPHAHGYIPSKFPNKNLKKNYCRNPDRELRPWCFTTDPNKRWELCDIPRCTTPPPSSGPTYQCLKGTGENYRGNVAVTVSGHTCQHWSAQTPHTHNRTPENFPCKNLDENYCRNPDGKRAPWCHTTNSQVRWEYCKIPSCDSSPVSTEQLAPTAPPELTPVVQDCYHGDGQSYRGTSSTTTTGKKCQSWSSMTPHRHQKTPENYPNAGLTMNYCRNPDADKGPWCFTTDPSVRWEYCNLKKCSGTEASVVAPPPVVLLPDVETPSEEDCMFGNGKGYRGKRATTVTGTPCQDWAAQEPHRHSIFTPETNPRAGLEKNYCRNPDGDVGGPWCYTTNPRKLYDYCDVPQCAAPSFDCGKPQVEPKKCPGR

pIC50	Compound
4.66	Cc1ccc(C(NC(=O)c2cnn(Cc3ccc(Cn4cccn4)cc3)c2)B2OC(C)(C)C(C)(C)O2)c(F)c1 (stereo not drawn) [Compound 20]
< 4.40	O=C(NCc1cccc(Cl)c1)c1cnn(Cc2ccc(Cn3cccn3)cc2)c1 [Compound 24]

same assay, conditions: Plasmin IC50, 10 min preincubation

pIC50	Compound
4.70	Cc1ccc(C(NC(=O)c2cnn(Cc3ccc(Cn4cccn4)cc3)c2)B2OC(C)(C)C(C)(C)O2)c(F)c1 (stereo not drawn) [Compound 20]
< 4.40	O=C(NCc1cccc(Cl)c1)c1cnn(Cc2ccc(Cn3cccn3)cc2)c1 [Compound 24]

same assay, conditions: Plasmin IC50, 60 min preincubation

pIC50	Compound
4.92	Cc1ccc(C(NC(=O)c2cnn(Cc3ccc(Cn4cccn4)cc3)c2)B2OC(C)(C)C(C)(C)O2)c(F)c1 (stereo not drawn) [Compound 20]
< 4.40	O=C(NCc1cccc(Cl)c1)c1cnn(Cc2ccc(Cn3cccn3)cc2)c1 [Compound 24]

target: T2, FXIIa (Homo sapiens, UniProt P00748); assay: Isolated enzyme potency against FXIIa, preincubation time course; conditions: read-out: FXIIa IC50; 5 min preincubation
T2 sequence (P00748 373-615 limits assumed): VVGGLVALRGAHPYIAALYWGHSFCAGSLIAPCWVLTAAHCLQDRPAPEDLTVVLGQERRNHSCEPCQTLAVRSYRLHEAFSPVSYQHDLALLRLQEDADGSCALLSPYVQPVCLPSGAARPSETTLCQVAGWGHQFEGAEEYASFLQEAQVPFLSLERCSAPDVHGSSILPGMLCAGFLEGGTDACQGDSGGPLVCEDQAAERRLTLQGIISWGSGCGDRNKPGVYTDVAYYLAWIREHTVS

pIC50	Compound
< 3.40	O=C(NC(B(O)O)c1cccc(Cl)c1)c1cnn(Cc2ccccc2)c1 (stereo not drawn) [Compound 18]
< 3.40	Cc1ccc(C(NC(=O)c2cnn(Cc3ccccc3)c2)B2OC(C)(C)C(C)(C)O2)c(F)c1 (stereo not drawn) [Compound 17b]
< 3.40	CC1(C)OB(C(N)c2cccc(Cl)c2)OC1(C)C.Cl (stereo not drawn) [Compound 15a]

same assay, conditions: read-out: FXIIa IC50; 60 min preincubation

pIC50	Compound
< 3.40	O=C(NC(B(O)O)c1cccc(Cl)c1)c1cnn(Cc2ccccc2)c1 (stereo not drawn) [Compound 18]
< 3.40	Cc1ccc(C(NC(=O)c2cnn(Cc3ccccc3)c2)B2OC(C)(C)C(C)(C)O2)c(F)c1 (stereo not drawn) [Compound 17b]
< 3.40	CC1(C)OB(C(N)c2cccc(Cl)c2)OC1(C)C.Cl (stereo not drawn) [Compound 15a]

same assay, conditions: time course experiments

Inhibition of FXIIa activity (in words)	Compound
no effect	Cc1ccc(C(NC(=O)c2cnn(Cc3ccc(Cn4cccn4)cc3)c2)B2OC(C)(C)C(C)(C)O2)c(F)c1 (stereo not drawn) [Compound 20]
no activity	O=C(NC(B(O)O)c1cccc(Cl)c1)c1cnn(Cc2ccccc2)c1 (stereo not drawn) [Compound 18]

target: T1, PKa; assay: Compound dissociation assay (jump dilution); conditions: 62.5-fold dilution after 10 min preincubation; monitored over 600 s with fluorogenic substrate

Inhibitor dissociation from PKa	Compound
no apparent reversibility	Cc1ccc(C(NC(=O)c2cnn(Cc3ccc(Cn4cccn4)cc3)c2)B2OC(C)(C)C(C)(C)O2)c(F)c1 (stereo not drawn) [Compound 20]
rapid dissociation	O=C(NCc1cccc(Cl)c1)c1cnn(Cc2ccc(Cn3cccn3)cc2)c1 [Compound 24]

system: Trypsin; assay: Time-dependent potency determination against trypsin; conditions: read-out: Trypsin IC50; 1 min preincubation

pIC50	Compound
< 4.40	Cc1ccc(C(NC(=O)c2cnn(Cc3ccc(Cn4cccn4)cc3)c2)B2OC(C)(C)C(C)(C)O2)c(F)c1 (stereo not drawn) [Compound 20]
< 4.40	O=C(NCc1cccc(Cl)c1)c1cnn(Cc2ccc(Cn3cccn3)cc2)c1 [Compound 24]

same assay, conditions: read-out: Trypsin IC50; 10 min preincubation

pIC50	Compound
< 4.40	Cc1ccc(C(NC(=O)c2cnn(Cc3ccc(Cn4cccn4)cc3)c2)B2OC(C)(C)C(C)(C)O2)c(F)c1 (stereo not drawn) [Compound 20]
< 4.40	O=C(NCc1cccc(Cl)c1)c1cnn(Cc2ccc(Cn3cccn3)cc2)c1 [Compound 24]

same assay, conditions: read-out: Trypsin IC50; 60 min preincubation

pIC50	Compound
< 4.40	Cc1ccc(C(NC(=O)c2cnn(Cc3ccc(Cn4cccn4)cc3)c2)B2OC(C)(C)C(C)(C)O2)c(F)c1 (stereo not drawn) [Compound 20]
< 4.40	O=C(NCc1cccc(Cl)c1)c1cnn(Cc2ccc(Cn3cccn3)cc2)c1 [Compound 24]
